Measurements: article PMC5994430, “Mitochondrial Delivery of Phenol Substructure Triggers Mitochondrial Depolarization and Apoptosis of Cancer Cells” (Frontiers in Pharmacology, 2018)

Columns and labels:
[1] = test system: electron transport between complexes I and III; assay: Electron transport chain in mitochondrial extracts of A549 cells; format: cell-based, Human; settings: 0.1 μM, 4 h
Experimental: The electron transport between complexes I and III was measured in mitochondrial extracts, immediately after extract thawing, as detailed earlier ([Jean et al., 2015]). In particular, 10 μl of not-sonicated mitochondrial samples were re-suspended in 0.59 ml buffer C (5 mM KH2PO4, 5 mM MgCl2, 5% w/v BSA) and transferred into a quartz spectrophotometer cuvette. Then 0.38 ml buffer D (25% w/v saponin, 50 mM KH2PO4, 5 mM MgCl2, 5% w/v BSA, 0.12 mM cytochrome c-oxidized form, 0.2 mM NaN3) was added for 5 min at room temperature. The reaction was started with 0.15 mM NADH and was followed for 5 min, reading the absorbance at 550 nm by a Lambda 3 spectrophotometer (PerkinElmer, Waltham, MA, United States). The results were expressed as nmoles reduced cytochrome c/min/mg mitochondrial proteins. […]
[t] […] (E,F) The electron transport was measured spectrophotometrically in duplicates. ATP levels in mitochondrial extracts was measured by a chemiluminescence-based assay, in duplicates. […] (G,H) ROS amount in mitochondrial extracts and mitochondrial damage were measured fluorimetrically, in duplicates. […] There were no statistically significant differences between untreated (ctrl) and compound 1/compound 2-treated BEAS-2B cells for all the parameters analyzed in this figure.

[2] = test system: human cancer cell lines and normal cells; assay: Extracellular LDH release, panel of cancer cell lines and normal cells; format: cell-based; settings: 24 h, 0.1, 1 and 10 μM
Excerpt: Human colon cancer HT29 cells, colon-derived normal fibroblast CCD-18Co cells, lung cancer A549 cells, normal human bronchial epithelial (immortalized with adenovirus 12-SV40 virus hybrid Ad12SV40) BEAS-2B cells, breast cancer MDA-MB-231 cells, normal breast epithelial MCF10A cells, human osteosarcoma U-2OS cells were purchased from ATCC (Manassas, VA, United States). Primary osteoblasts were generated as reported previously ([Buondonno et al., 2016]). HMM and HMC were primary cells stabilized in culture as described ([Aldieri et al., 2004]). The use of primary cells was approved by Ethical Committee of the San Luigi Gonzaga Hospital, Orbassano, (protocol #126/2016). […]
The extracellular release of LDH, considered an index of cell damage and necrosis, was measured spectrophotometrically, as reported ([Riganti et al., 2013b]). […] LDH activity was measured in the extracellular medium and in the cell lysate: 50 μl of extracellular medium or 5 μl of cell lysate were incubated at 37°C with 5 mM NADH. The reaction was started by adding 20 mM pyruvic acid and was monitored for 6 min, measuring absorbance at 340 nm using a Synergy HT Multi-Detection Microplate Reader (Bio-Tek Instruments, Winoosky, MT, United States). […] Both intracellular and extracellular enzyme activities were expressed as μmol NADH oxidized/min/dish. […] IC50 was calculated with the CompuSyn software^1. […]

[3] = test system: A549 cells; assay: Mitochondrial depolarization (JC-1); format: cell-based, Human; settings: 0.1 μM, 4 h
Experimental: (§1) Mitochondrial depolarization was measured by staining cells with the fluorescent probe JC-1 (Biotium Inc., Hayward, CA, United States), as described ([Riganti et al., 2015a]). The red fluorescence, index of polarized mitochondria, was detected at 550 nm (λ excitation) and 600 nm (λ emission); the green fluorescence, index of depolarized and damaged mitochondria, was detected at 485 nm (λ excitation) and 535 nm (λ emission). The fluorescence units were used to calculate the percentage of green-fluorescent versus red-fluorescent mitochondria.
(§2) [t] Continuedof three experiments with similar results. (D) Confocal analysis of mitochondrial staining with MitoTracker® Green FM. Magnification: 60 × objective (0.52 numerical aperture); 10 × ocular lens. Bar: 10 μM. The micrographs are representative of three experiments with similar results. (E,F) The electron transport was measured spectrophotometrically in duplicates. ATP levels in mitochondrial extracts was measured by a chemiluminescence-based assay, in duplicates. Data are means ± SD (n = 3). For both panels: ^∗p < 0.001 vs. A549 ctrl cells; °p < 0.001 for BEAS-2B cells vs. the corresponding condition in A549 cells. (G,H) ROS amount in mitochondrial extracts and mitochondrial damage were measured fluorimetrically, in duplicates. Data are means ± SD (n = 3). For both panels: ^∗p < 0.001 vs. A549 ctrl cells; °p < 0.001 for BEAS-2B cells vs. the corresponding condition in A549 cells. There were no statistically significant differences between untreated (ctrl) and compound 1/compound 2-treated BEAS-2B cells for all the parameters analyzed in this figure.

[4] = test system: BEAS-2B cells; assay: Mitochondrial depolarization (JC-1); format: cell-based, Human; settings: 0.1 μM, 4 h
Experimental: as §1, §2

[5] = test system: mitochondrial ROS; assay: Mitochondrial ROS (MitoSOX Red) in BEAS-2B cells; format: cell-based, Human; settings: 0.1 μM, 4 h
Experimental: The amount of ROS in mitochondrial extracts was measured fluorimetrically by incubating cell suspension at 37°C for 10 min with 10 μM of MitoSOX Red probe (Invitrogen Life Technologies), as per manufacturer’s instructions. Results were expressed as nmoles/mg mitochondrial proteins, using a calibration curve previously set with serial dilution of H2O2.
as §2, with “= 3). […] There were” for “= 3). For both panels: ^∗p < 0.001 vs. A549 ctrl cells; °p < 0.001 for BEAS-2B cells vs. the corresponding condition in A549 cells. There were”

[6] = test system: A549 cells; assay: Extracellular LDH release; format: cell-based, Human; settings: 0.1, 1 or 10 μM, 24 h
Experimental: (§3) The extracellular release of LDH, considered an index of cell damage and necrosis, was measured spectrophotometrically, as reported ([Riganti et al., 2013b]). The extracellular medium was centrifuged at 12,000 × g for 15 min to pellet cellular debris, the cells were washed with fresh medium, detached with 0.01% trypsin/EDTA, re-suspended in 0.2 ml of 82.3 mM triethanolamine phosphate-HCl (pH 7.6), and sonicated on ice with two 10-sec bursts. LDH activity was measured in the extracellular medium and in the cell lysate: 50 μl of extracellular medium or 5 μl of cell lysate were incubated at 37°C with 5 mM NADH. The reaction was started by adding 20 mM pyruvic acid and was monitored for 6 min, measuring absorbance at 340 nm using a Synergy HT Multi-Detection Microplate Reader (Bio-Tek Instruments, Winoosky, MT, United States). The reaction kinetics were linear throughout the time of measurement. Both intracellular and extracellular enzyme activities were expressed as μmol NADH oxidized/min/dish. The results were expressed as percentage of extracellular LDH versus total (intracellular plus extracellular) LDH. Cell viability was measured by the neutral red staining method, as previously reported ([Riganti et al., 2015b]). The absorbance of untreated cells was considered as 100% viability; the results were expressed as percentage of viable cells versus untreated cells. IC50 was calculated with the CompuSyn software^1.
(§4) Supplementary Figure 3. Cytotoxic effects of compound 15 and 16. A549 and BEAS-2B cells were grown in fresh medium (0) or incubated with 0.1, 1 or 10 µM of 15 and 16 for 24 h (panel A) or 72 h (panel B). A. The release of LDH was measured spectrophotometrically in duplicates. Data are means ± SD (n=3). B. Cell viability was measured spectrophotometrically in quadruplicates. Data are […]
(§5) (1 picture or pasted object on this page, not shown here)

[7] = test system: BEAS-2B cells; assay: Extracellular LDH release; format: cell-based, Human; settings: 0.1, 1 or 10 μM, 24 h
Experimental: as §3, §4, §5

Compound: CC(=O)Oc1ccc(C[P+](c2ccccc2)(c2ccccc2)c2ccccc2)cc1.[Br-] [Compound 1]
- rate of electron transport [1]: significant decrease
- release of LDH in the extracellular medium [2]: dose-dependent increase
- percentage of depolarized mitochondria [3]: acutely increased
- mitochondrial depolarization [4]: negligible modifications
- mitochondrial ROS [5]: negligible modifications

Compound: O=C(Oc1ccc(C[P+](c2ccccc2)(c2ccccc2)c2ccccc2)cc1C(F)(F)F)c1ccccc1.[Br-] [Compound 2]
- rate of electron transport [1]: significant decrease
- release of LDH in the extracellular medium [2]: dose-dependent increase
- percentage of depolarized mitochondria [3]: acutely increased
- mitochondrial depolarization [4]: negligible modifications
- mitochondrial ROS [5]: negligible modifications

Compound: Oc1ccc(C[P+](c2ccccc2)(c2ccccc2)c2ccccc2)cc1.[Br-] [Compound 15]
- release of LDH [6]: did not increase the release of LDH
- release of LDH [7]: did not increase the release of LDH

Compound: Oc1ccc(C[P+](c2ccccc2)(c2ccccc2)c2ccccc2)cc1C(F)(F)F.[Br-] [Compound 16]
- release of LDH [6]: did not increase the release of LDH
- release of LDH [7]: did not increase the release of LDH
